For data set [1] the following is noted: up to the replacement of 10-30% of water in the body; cited from earlier work.
The text on data set [2]: An important property of the deuterated component (sarcosine) of the diagnostic drug of the invention is sufficient resistance to metabolic exchange of deuterium for protium in vivo. This exchange lowers the concentration of the deuterium label, while simultaneously increasing the background signal of heavy water (DOH), which is evenly distributed throughout the body due to rapid diffusion. This process leads to a decrease in the contrast of the image, and also prevents quantitive evaluation of deuterated component concentration by comparison with the intensity of natural DOH signal.

The test system of a further data set is 4T1 breast carcinoma. Description: Deuterium tomography (2H MRI) of mice with 4T1 breast carcinoma after injection of the deuterated compound. The settings on record: 10 mg intraperitoneally in 1.0 ml water, 20 g mouse.
Data set [3] in a line: Solubility in water for injection. The class given is physicochemical. The settings on record: limits the dose to 10 mg in 1.0 ml.
For data set [4] the following is noted: freely diffusing deuterated compound. The source says:
In this case, the pharmacokinetics in a non-obvious way depends on a dose used (in particular, an excess of the renal reabsorption capacity for a particular compound can lead to its accelerated excretion). At that, the dose is limited by the toxicity and solubility of this compound.

The conditions of data set [5]: high doses, prior art; cited from earlier work.

Protocol for 4T1 breast carcinoma: The deuterium tomogram was recorded using FLASH (Fast low angle shot) pulse sequence. The excitation frequency was determined from the ^2H NMR spectrum and was on the instrument used: sfo1≈46.17452 MHz, rectangular excitation pulse 2560 Hz wide and 11.2 dB power, deflection angle FA=30°, repetition time TR=11.8 ms, echo time TE=4.07 ms, scan region10 cm×10 cm, scan matrix 50×50, slice thickness 3 cm, bandwidth 12500 Hz, total scan time 9 minutes 34 seconds (1024 accumulations).
In this example, experiments were performed on Balb/c mice grafted with 4T1 breast carcinoma (injection of 5×10^5 cells/60 μI under the left forepaw 12 days before the experiment). […] In 10 minutes after the injection, the animal was immobilized with isoflurane and placed on a heated bed in a tomograph.
An animal weighing 20 g was injected intraperitoneally with a solution:

Consider `[2H]O` [DOH], for which the toxicity entry in data set [1] was “non-toxic in very high doses”.

As to `[2H]C([2H])([2H])[C@H](N)C(=O)O` [L-alanine-3,3,3-d3], the “loss of deuterium in vivo (exchange of deuterium for protium)” value in data set [2] is listed as “lose deuterium in vivovery quickly”.

Regarding `[2H]c1c([2H])c([2H])c(C([2H])([2H])[C@H](N)C(=O)O)c([2H])c1[2H]` [L-phenylalanine-β, β, 2,3,4,5,6-d7], in the data set on 4T1 breast carcinoma, the “accumulation in tumor tissue” value is on record as “do not accumulate in tumor tissue” and the “accumulation selectivity in various organs” value was “do not show accumulation selectivity”. Moreover, the solubility result in data set [3] is “low solubility”.

With `[2H]C([2H])(N)C(=O)O` [glycine-2,2-d2], the “loss of deuterium in vivo (exchange of deuterium for protium)” value in data set [2] was “lose deuterium in vivovery quickly”.

In the case of `[2H]O[2H]` [D2O], the “selective accumulation in various organs and tissues of a subject” value in data set [4] is “do not show selective accumulation”.

One may read the LD50 as the dose at which mortality reaches 50%. With `CNCC(=O)O` [sarcosine], the LD50 in data set [5] was over 5000 mg/kg.

Values taken from patent US12383523B2, “Magnetic resonance imaging drug containing deuterated sarcosine, and diagnostic method using said drug” (LIMITED LIABILITY COMPANY “SOLVEX” (“SOLVEX” LLC), priority 2018, dated 2025).
